Ends that are not written are not given here. * marks the point of attachment. Myristoyl = CCCCCCCCCCCCCC(=O)*
How the values were obtained:
PKC-δ and ERK1/2 = target: T1, PKC-δ and ERK1/2 (Homo sapiens, UniProt P27361+P28482+Q05655); test: Co-immunoprecipitation of PKC-δ and ERK1/2 (anti-ERK1/2); format: cell-based; details: myristoylated peptide, IGF-1, FIG. 9D
T1 construct: The human PKC-δ open reading frame was amplified by PCR from a human brain cDNA library; expressed in transfected cells; host or cells: HEK293A (PKC-δ transfected; ERK1/2 endogenous)
T1 sequence (Q05655 whole entry): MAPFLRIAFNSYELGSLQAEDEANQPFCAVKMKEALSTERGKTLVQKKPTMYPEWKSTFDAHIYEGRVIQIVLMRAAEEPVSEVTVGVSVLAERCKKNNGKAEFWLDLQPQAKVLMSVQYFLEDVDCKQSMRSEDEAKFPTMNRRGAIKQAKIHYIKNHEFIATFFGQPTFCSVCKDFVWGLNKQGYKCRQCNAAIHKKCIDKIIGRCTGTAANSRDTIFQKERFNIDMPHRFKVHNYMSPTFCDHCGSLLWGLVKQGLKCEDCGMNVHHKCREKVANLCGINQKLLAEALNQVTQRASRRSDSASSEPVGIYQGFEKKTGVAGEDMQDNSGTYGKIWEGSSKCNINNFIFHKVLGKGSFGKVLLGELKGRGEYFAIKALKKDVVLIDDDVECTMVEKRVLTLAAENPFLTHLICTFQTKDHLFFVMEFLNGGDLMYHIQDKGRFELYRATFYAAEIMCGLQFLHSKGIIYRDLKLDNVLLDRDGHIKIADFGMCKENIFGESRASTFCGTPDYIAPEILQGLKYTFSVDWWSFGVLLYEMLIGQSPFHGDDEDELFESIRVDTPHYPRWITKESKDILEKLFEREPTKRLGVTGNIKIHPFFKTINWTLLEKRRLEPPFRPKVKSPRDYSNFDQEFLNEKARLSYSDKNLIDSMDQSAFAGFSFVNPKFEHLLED
T1 sequence (P27361 2-379 limits assumed): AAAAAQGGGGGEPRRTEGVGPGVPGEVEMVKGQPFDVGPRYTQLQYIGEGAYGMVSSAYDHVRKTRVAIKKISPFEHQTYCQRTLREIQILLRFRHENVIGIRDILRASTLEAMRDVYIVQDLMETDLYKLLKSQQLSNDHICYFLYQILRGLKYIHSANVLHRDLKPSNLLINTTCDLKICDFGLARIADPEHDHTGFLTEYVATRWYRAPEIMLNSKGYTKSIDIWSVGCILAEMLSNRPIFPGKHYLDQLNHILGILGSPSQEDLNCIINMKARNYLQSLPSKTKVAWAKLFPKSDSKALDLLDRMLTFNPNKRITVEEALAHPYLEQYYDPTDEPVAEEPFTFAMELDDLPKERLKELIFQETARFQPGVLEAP
T1 sequence (P28482 2-360 limits assumed): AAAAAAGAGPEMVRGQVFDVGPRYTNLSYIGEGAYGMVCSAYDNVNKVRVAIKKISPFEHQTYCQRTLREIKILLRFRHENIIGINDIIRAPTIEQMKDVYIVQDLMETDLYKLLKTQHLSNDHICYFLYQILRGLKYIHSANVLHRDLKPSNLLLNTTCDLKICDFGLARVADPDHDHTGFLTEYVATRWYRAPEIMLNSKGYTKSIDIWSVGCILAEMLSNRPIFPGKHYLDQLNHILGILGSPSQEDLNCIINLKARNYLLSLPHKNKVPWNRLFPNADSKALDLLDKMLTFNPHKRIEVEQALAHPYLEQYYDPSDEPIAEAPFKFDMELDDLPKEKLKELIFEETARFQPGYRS
Description: (§1) Immunoprecipitation was performed on cell lysates prepared as described previously (Lerner-Marmarosh et al., “Regulation of TNF-alpha-Activated PKC-zeta Signaling By the Human Biliverdin Reductase: Identification of Activating and Inhibitory Domains of the Reductase,” FASEB J. 21:3949-3962 (2007), which is hereby incorporated by reference in its entirety). Immunoprecipitates were separated by SDS PAGE, and the proteins blotted to nitrocellulose membrane. The antibodies used for precipitation and for probing the membranes are as described in the specific figure legends.
(§2) Cell Culture, infection, transfection, and co-immunoprecipitation: HEK293A cells were grown and transfected with pcDNA3-HA-hBVR or pcDNA3-PKC-δ plasmids using conditions described elsewhere (Kravets et al., “Biliverdin Reductase, a Novel Regulator for Induction of Activating Transcription Factor-2 and Heme Oxygenase-1,” J. Biol. Chem. 279(19):19916-19923 (2004); Maines et al., “Human Biliverdin Reductase, a Previously Unknown Activator of Protein Kinase C BetaII,” J. Biol. Chem. 282(11):8110-8122 (2007), which are hereby incorporated by reference in their entirety), and overexpression was confirmed by western blotting. […]

hBVR and PKC-δ = target: T2, hBVR and PKC-δ (Homo sapiens, UniProt Q05655); test: Co-immunoprecipitation of hBVR and PKC-δ (anti-HA); format: cell-based; details: myristoylated peptide 2 h, then IGF-1, FIG. 9B
T2 construct: The human PKC-δ open reading frame was amplified by PCR from a human brain cDNA library; expressed in transfected cells; host or cells: HEK293A
T2 sequence (Q05655 whole entry): as the sequence (Q05655 whole entry) above
Description: as §1, §2

recombinant human PKC-δ = test: PKC-δ kinase assay in vitro (p81 filter / autoradiography); format: biochemical; details: for phosphorylation of variant peptides as PKC-δ substrates: FIG. 4C; for phosphate incorporated into hBVR-derived peptides by PKC-δ: 10 μM peptide, 30 min at 30° C., FIG. 6C
Description: Measurement of PKC-δ activity: In vitro kinase activity assays were performed with active recombinant human PKC-δ kinase (as a GST fusion protein). PKC-δ assay in vitro was performed using 5 ng purified enzyme in a 50 μl assay containing 50 mM HEPES pH 7.4, 10 mM MgCl2, 0.2 mM DTT, sonicated lipid activators (0.5 μg phosphatidylserine and 0.05 μg diacylglycerol) or lipid activators plus PMA (as indicated in appropriate experiments) and PKC-δ substrates. The reaction was started by the addition of 50 μM ATP labeled with 5 μCi [γ-^32P]-ATP. Incubation was performed for 15 min at 30° C., unless otherwise stated. The reaction was terminated on ice, either by the addition of Laemmli buffer followed by SDS-PAGE, transferred to PVDF membrane, and autoradiography, or by the addition of 1 volume 10% phosphoric acid for p81 transfer as described below. For autophosphorylation of PKC-δ 20 μM ATP was used to start the 40-min reaction.
When hBVR or its mutants were tested for their effect on PKC-δ activity, they were pre-incubated for 5 min at room temperature with the PKC prior to substrate addition. The hBVR-derived peptides were used at concentrations indicated in appropriate figures.
When hBVR or its mutants were assayed as the sole substrates for PKC, the incubation conditions were as described above and the incubation was for 40 min at 30° C. unless specified otherwise. The reaction was terminated by the addition of Laemmli buffer, and the reaction products were detected by SDS-PAGE, transfer to PVDF membrane, and autoradiography.
Measurement of PKC-δ activity: PKC-δ assay in vitro was performed using 0.1 ng/μl purified recombinant human PKC-δ kinase with reaction conditions specified by the manufacturer. Effector molecules such as hBVR or peptides were added 5 min prior to substrate. The reaction was started by the addition of [γ-^32P]-ATP (Lerner-Marmarosh et al., “Human Biliverdin Reductase: A Member of the Insulin Receptor Substrate Family with Serine/Threonine/Tyrosine Kinase Activity,” Proc. Natl. Acad. Sci. U.S.A. 102(20):7109-7114 (2005), which is hereby incorporated by reference in its entirety). Reaction products were detected either by gel electrophoresis and autoradiography or by the p81 filter assay. PKC-δ activity on agarose beads was also measured. Cell lysates were immunoprecipitated with anti-PKC-δ antibody followed by protein A/G agarose. The immunoprecipitates were used in kinase reactions containing 50 μM PKC-δ specific peptide substrate as above; incorporation of ^32P was measured by p81 method.

PKC-δ [1] = target: T3, PKC-δ (Homo sapiens, UniProt Q05655); test: PMA-induced PKC-δ membrane translocation, confocal microscopy; format: cell-based; set-up: inserting the open reading frame of PKC-δ into the plasmid pDsRed2-C1; expressed in transfected cells; host or cells: 293A; details: 10 μM myristoylated peptide, PMA 15 min, FIG. 5E
T3 sequence (Q05655 whole entry, the tested form may be a part): as the sequence (Q05655 whole entry) above
Description: Confocal microscopy: Experimental protocols were based on those described by Edwards et al., “Carboxyl-Terminal Phosphorylation Regulates the Function and Subcellular Localization of Protein Kinase C betall,” J. Biol. Chem. 274:6461-6468 (1999), which is hereby incorporated by reference in its entirety. 293A cells were grown in a chamber slide system (Nalge-Nunc International Corp., Naperville, Ill.). Cells were transfected with pEGFP-hBVR and/or the plasmid expressing Ds2-Red-PKC-δ fusion protein. After a 24 h starvation period, cells were fixed for 10 min in 4% Para-formaldehyde in PBS and permeabilized with 1% Triton X-100 in PBS. The cells were mounted with Vectashield (Vector Laboratories, Inc. Burlingame, Calif.), containing DAPI to visualize the nuclei. Non-transfected cells were permeabilized as above, treated with 1:150 dilution of polyclonal anti-PKC-δ antibodies, washed, blocked, and then treated with polyclonal anti-hBVR antibodies. The PBS-washed cells were then treated with Rhodamine-red-conjugated donkey anti-rabbit IgG antibodies (Jackson ImmunoResearch, West Grove, Pa.) for 30 min, followed by mounting. A Leica TCS SP (model DMRE) confocal microscope was used (Maines et al., “Human Biliverdin Reductase: A Previously Unknown Activator of Protein Kinase C-βII,” J. Biol. Chem. 282:8110-8122 (2007), which is hereby incorporated by reference in its entirety).

PKC-δ [2] = target: T3, PKC-δ; test: PKC-δ activity assay in situ in 293A cells; format: cell-based; set-up: The human PKC-δ open reading frame was also cloned in the same vectors; expressed in transfected cells; host or cells: HEK 293A; details: 20 μM, added 30 min prior to treatment, FIG. 3C
Description: The PKC-δ activity assay in situ was performed by a modification of procedures detailed by Williams and Schrier (Williams et al., Glucose-Induced Protein Kinase C Activity Regulates Arachidonic Acid Release and Eicosanoid Production by Cultured Glomerular Mesangial Cells,” J. Clin. Invest. 92:2889-2896 (1993), which is hereby incorporated by reference in its entirety). Cells were seeded into 48-well plates and transfected with 0.1 μg/well pcDNA3-hBVR. After 24 h, the medium was replaced with a starvation medium (0.1% serum) and incubation continued for another 24 h to synchronize cells. In some wells, PKC inhibitor Rottlerin (20 μM) was added 30 min before addition of PMA (100 nM) for 15 min. In some wells, hBVR-derived peptides were introduced to cells in their myristoylated form. Cells were washed with medium and incubated for 10 min at 30° C. in 50 μl of kinase assay buffer (137 mM NaCl, 5.4 mM KCl, 10 mM MgCl2, 0.3 mM Na2HPO4, 0.4 mM KH2PO4, 25 mM β-glycerophosphate, 5.5 mM D-glucose, 5 mM EGTA, 1 mM CaCl2, 20 mM HEPES (pH 7.2), 50 μg/ml digitonin, 120 μg/ml of PKC-δ specific substrate (ARRKRKGSFFGG; SEQ ID NO: 52) and 100 μM ATP labeled with 10 μCi/ml [γ-^32P]-ATP). The reaction was stopped with the addition of 25 μl of ice-cold 30% (wt/vol) TCA. The TCA-soluble fraction samples were transferred to p81 phospho-cellulose filters. […]

Compound: FGFPAFSG (BVR peptide) [hBVR-derived hydrophobic (C-box) peptide]
- association of PKC-δ and ERK1/2, effect of peptide (PKC-δ and ERK1/2): inhibitory
- association between hBVR and PKC-δ, effect of peptide (hBVR and PKC-δ): completely blocked

Compound: GLAANAYLSFHFK (BVR peptide) [second variant of the aa222-234 peptide, upstream lysine and arginine residues replaced by alanine]
- phosphorylation of variant peptides as PKC-δ substrates (recombinant human PKC-δ): not a substrate

Compound: GLKRNRYLAFHFK (BVR peptide) [aa222-234 peptide with target serine replaced by alanine]
- phosphorylation of variant peptides as PKC-δ substrates (recombinant human PKC-δ): not a substrate

Compound: aa290-296: hBVR-derived peptide containing S294 in consensus PKC phosphorylation motif (KYCCSRK; UniProt P53004 290-296, looked up, fragment)
- phosphate incorporated into hBVR-derived peptides by PKC-δ (recombinant human PKC-δ): several fold increase

Compound: hBVR aa18-23: hBVR-derived peptide containing S21 in consensus PKC phosphorylation motif (RAGSVR; UniProt P53004 18-23, looked up, fragment)
- phosphate incorporated into hBVR-derived peptides by PKC-δ (recombinant human PKC-δ): several fold increase

Compound: SFHFKSGSL (Myristoyl-SFHFKSGSL) [hBVR-based peptide aa230-238]
- inhibition of phosphorylation of the commercial substrate (recombinant human PKC-δ; 50 μM substrate/10 μM inhibitor, FIG. 5A): clearly differed
- PKC-δ translocation to the cell membrane upon PMA (PKC-δ [1]): did not significantly affect

Compound: CC(=O)c1c(O)c(C)c(O)c(Cc2c(O)c3c(c(C(=O)/C=C/c4ccccc4)c2O)OC(C)(C)C=C3)c1O [Rottlerin, reference compound]
- PKC-δ activation by PMA and hBVR in cells overexpressing the kinase (PKC-δ [2]): significant reduction

Compound: KKRILHCLGLA (BVR peptide) [hBVR-derived D-box peptide]
- association of PKC-δ and ERK1/2, effect of peptide (PKC-δ and ERK1/2): failed to block
- association between hBVR and PKC-δ, effect of peptide (hBVR and PKC-δ): slight decrease in binding

Compound: GLKRNRYLAFHFKSGSL (BVR peptide) [alanine-mutant peptide (hBVR aa222-238), longer alanine-mutant peptide that includes two additional serines]
- phosphorylation of variant peptides as PKC-δ substrates (recombinant human PKC-δ): markedly decreased phosphorylation
